Values quoted from earlier work in patent US6110927A, “Loratadine for use as an antiarrhythmic” (Pfizer Inc, priority 1999, dated 2000).

Legend:
[1] = clinical studies
[2] = both with and without a history of similar arrhythmia
[3] = system: hKv1.5 channels; settings: only at concentrations much higher than therapeutic plasma levels in man

SMILES | efficacy in treating patients with atrial arrhythmias [1] | reported cases of atrial fibrillation with loratadine use [2] | block of hKv1.5 channels [3]
CN(CCOc1ccc(NS(C)(=O)=O)cc1)CCc1ccc(NS(C)(=O)=O)cc1 [dofetilide] | effective in treating patients with atrial arrhythmias |  | 
CCOC(=O)N1CCC(=C2c3ccc(Cl)cc3CCc3cccnc32)CC1 [loratadine, ethyl 4-(8-chloro-5,6-dihydro-11-H-benzo [5,6]cyclohepta-[1,2-b]-pyridin-11-ylidene)-1-piperidinecarboxylate] |  | at least 2 cases | blocked hKv1.5 channels in a concentration-, voltage-, time- and use-dependent manner
